Measurements from patent US11753411B2, “Substituted pyrazolo[1,5-a]pyrimidines as TYK2 pseudokinase ligands” (Ventyx Biosciences, Inc., priority 2019, dated 2023).
pIC50: −log10 of the molar value.

Test system: IFN-a/Jak1 Tyk2
Assay: Co-stimulation assay in lysed whole blood: IFNa (JAK1/TYK2) stimulated STAT1 phosphorylation
Type: cell-based
Conditions: Homo sapiens, 20 min, 100 ng/mL IFNa (with 10 ng/mL GM-CSF), pSTAT by flow cytometry
Method in brief: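 Lysed human whole blood (RBC-lysed, resuspended in cRPMI) pre-incubated with compound 1 h at 37 °C, then stimulated 20 min with IFNa 100 ng/mL plus GM-CSF 10 ng/mL (final). Fixed, permeabilised, stained for pSTAT1 (PE) and pSTAT5 (AF488); flow cytometry read-out, ≥5,000–10,000 cells acquired.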

Q: With CNc1cc(Nc2cc(C(F)(F)F)cc3c2OCCO3)nc2c(NC(=O)NC3CC3)cnn12 [Compound 82, 1-cyclopropyl-3-(7-(methylamino)-5-((7-(trifluoromethyl)-2,3-dihydrobenzo[b][1,4]dioxin-5-yl)amino)pyrazolo[1,5-a]pyrimidin-3-yl)urea] as the compound, how does the pIC50 read?
A: 5.00 to 6.00

Q: With [2H]C([2H])([2H])Nc1cc(Nc2cc(F)cc3c2OCCO3)nc2c(NC(=O)N[C@@H]3C[C@@H]3F)cnn12 [Compound 49, 1-(5-((7-fluoro-2,3-dihydrobenzo[b][1,4]dioxin-5-yl)amino)-7-((methyl-d3)amino)pyrazolo[1,5-a]pyrimidin-3-yl)-3-((1R,2S)-2-fluorocyclopropyl)urea] as the compound, how does the pIC50 read?
A: > 6.00

Q: With CNC(=O)Nc1cnn2c(NC)cc(-c3cn(C4COC4)c4ncccc34)nc12 [Compound 86, 1-methyl-3-(7-(methylamino)-5-(1-(oxetan-3-yl)-1H-pyrrolo[2,3-b]pyridin-3-yl)pyrazolo[1,5-a]pyrimidin-3-yl)urea] as the compound, how does the pIC50 read?
A: 5.00 to 6.00

Q: With CNc1cc(Nc2cc(C)cc(C)c2)nc2c(NC(=O)N[C@@H]3C[C@@H]3F)cnn12 [Compound 60, 1-(5-((3,5-dimethylphenyl)amino)-7-(methylamino)pyrazolo[1,5-a]pyrimidin-3-yl)-3-((1R,2S)-2-fluorocyclopropyl)urea] as the compound, how does the pIC50 read?
A: ≤ 5.00

Q: With CNc1cc(Nc2cccc3nccnc23)nc2c(NC(=O)N[C@@H]3C[C@@H]3F)cnn12 [Compound 44, 1-((1R,2S)-2-fluorocyclopropyl)-3-(7-(methylamino)-5-(quinoxalin-5-ylamino)pyrazolo[1,5-a]pyrimidin-3-yl)urea] as the compound, how does the pIC50 read?
A: > 6.00

Q: With CNc1cc(Nc2cccc3c2OCCC3(F)F)nc2c(NC(=O)N[C@@H]3C[C@@H]3F)cnn12 [Compound 184, 1-(5-((4,4-difluorochroman-8-yl)amino)-7-(methylamino)pyrazolo[1,5-a]pyrimidin-3-yl)-3-((1R,2S)-2-fluorocyclopropyl)urea] as the compound, how does the pIC50 read?
A: 5.00 to 6.00

Q: With CNC(=O)Nc1cnn2c(NC)cc(Nc3cc(F)cc4c3OCCO4)nc12 [Compound 65, 1-(5-((7-fluoro-2,3-dihydrobenzo[b][1,4]dioxin-5-yl)amino)-7-(methylamino)pyrazolo[1,5-a]pyrimidin-3-yl)-3-methylurea] as the compound, how does the pIC50 read?
A: > 6.00

Q: With CNc1cc(Nc2cccc3cccnc23)nc2c(NC(=O)NC3CC3O)cnn12 (stereo not drawn) [Compound 31, 1-(2-hydroxycyclopropyl)-3-(7-(methylamino)-5-(quinolin-8-ylamino)pyrazolo[1,5-a]pyrimidin-3-yl)urea] as the compound, how does the pIC50 read?
A: ≤ 5.00

Q: With CNC(=O)Nc1cnn2c(NC)cc(Nc3cc(C)cc4c3OCCO4)nc12 [Compound 78, 1-methyl-3-(5-((7-methyl-2,3-dihydrobenzo[b][1,4]dioxin-5-yl)amino)-7-(methylamino)pyrazolo[1,5-a]pyrimidin-3-yl)urea] as the compound, how does the pIC50 read?
A: > 6.00

Q: With CNc1cc(Nc2cccc3c2OCCO3)nc2c(NC(=O)NC3CS(=O)(=O)C3)cnn12 [Compound 125, 1-(5-((2,3-dihydrobenzo[b][1,4]dioxin-5-yl)amino)-7-(methylamino)pyrazolo[1,5-a]pyrimidin-3-yl)-3-(1,1-dioxidothietan-3-yl)urea] as the compound, how does the pIC50 read?
A: 5.00 to 6.00

Q: With CNC(=O)Nc1cnn2c(NC)cc(Nc3cc(Cl)cc4c3OCCO4)nc12 [Compound 77, 1-(5-((7-chloro-2,3-dihydrobenzo[b][1,4]dioxin-5-yl)amino)-7-(methylamino)pyrazolo[1,5-a]pyrimidin-3-yl)-3-methylurea] as the compound, how does the pIC50 read?
A: > 6.00

Q: With CNc1cc(Nc2cccc3c2OCCO3)nc2c(NC(=O)NC3COC3)cnn12 [Compound 117, 1-(5-((2,3-dihydrobenzo[b][1,4]dioxin-5-yl)amino)-7-(methylamino)pyrazolo[1,5-a]pyrimidin-3-yl)-3-(oxetan-3-yl)urea] as the compound, how does the pIC50 read?
A: > 6.00

Q: With CNc1cc(Nc2cccc3c2OCCO3)nc2c(NC(=O)NC3CC3)cnn12 [Compound 139, 1-cyclopropyl-3-(5-((2,3-dihydrobenzo[b][1,4]dioxin-5-yl)amino)-7-(methylamino)pyrazolo[1,5-a]pyrimidin-3-yl)urea] as the compound, how does the pIC50 read?
A: > 6.00

Q: With CNc1cc(Nc2cccc3c2OCCO3)nc2c(NC(=O)NC3CC(C)(O)C3)cnn12 (stereo not drawn) [Compound 48, 1-(5-((2,3-dihydrobenzo[b][1,4]dioxin-5-yl)amino)-7-(methylamino)pyrazolo[1,5-a]pyrimidin-3-yl)-3-(3-hydroxy-3-methylcyclobutyl)urea] as the compound, how does the pIC50 read?
A: ≤ 5.00

Q: With [2H]C([2H])([2H])NC(=O)Nc1cnn2c(NC)cc(Nc3cccc4c3OCCO4)nc12 [Compound 144, 1-(5-((2,3-dihydrobenzo[b][1,4]dioxin-5-yl)amino)-7-(methylamino)pyrazolo[1,5-a]pyrimidin-3-yl)-3-(methyl-d3)urea] as the compound, how does the pIC50 read?
A: > 6.00

Q: With CNc1cc(Nc2cc(F)cc3c2OCCO3)nc2c(NC(N)=O)cnn12 [Compound 124, 1-(5-((7-fluoro-2,3-dihydrobenzo[b][1,4]dioxin-5-yl)amino)-7-(methylamino)pyrazolo[1,5-a]pyrimidin-3-yl)urea] as the compound, how does the pIC50 read?
A: > 6.00

Q: With CNc1cc(Nc2cc(F)cc3c2OCCO3)nc2c(NC(=O)NCC(F)F)cnn12 [Compound 133, 1-(2,2-difluoroethyl)-3-(5-((7-fluoro-2,3-dihydrobenzo[b][1,4]dioxin-5-yl)amino)-7-(methylamino)pyrazolo[1,5-a]pyrimidin-3-yl)urea] as the compound, how does the pIC50 read?
A: 5.00 to 6.00

Q: With CNc1cc(Nc2cccc3c2OCCO3)nc2c(NC(=O)NC3CC(O)C3)cnn12 (stereo not drawn) [Compound 29, 1-(5-((2,3-dihydrobenzo[b][1,4]dioxin-5-yl)amino)-7-(methylamino)pyrazolo[1,5-a]pyrimidin-3-yl)-3-(3-hydroxycylcobutyl)urea] as the compound, how does the pIC50 read?
A: 5.00 to 6.00

Q: With CNc1cc(Nc2cccc3c2OCCO3)nc2c(NC(=O)NC(C)C#N)cnn12 (stereo not drawn) [Compound 119, 1-(1-cyanoethyl)-3-(5-((2,3-dihydrobenzo[b][1,4]dioxin-5-yl)amino)-7-(methylamino)pyrazolo[1,5-a]pyrimidin-3-yl)urea] as the compound, how does the pIC50 read?
A: > 6.00

Q: With CNC(=O)Nc1cnn2c(NC)cc(N(C)c3ccccc3)nc12 [Compound 159, 1-methyl-3-(5-(methyl(phenyl)amino)-7-(methylamino)pyrazolo[1,5-a]pyrimidin-3-yl)urea] as the compound, how does the pIC50 read?
A: ≤ 5.00

Test system: not listed separately
Assay: Human liver microsome stability assay
Type: in vitro ADME
Conditions: 0.5 mg/mL human liver microsomes, 37° C., pH 7.4; urea versus corresponding amide
Experimental: The microsome stability assay was carried out in 96-well microtiter plates at 37° C. Reaction mixtures (25 μL) contained a final concentration of 1 µM test compound, 0.5 mg/mL human liver microsomes protein, and 1 mM NADPH and/or 1 mM UDPGA (with alamethicin) in 100 mM potassium phosphate, pH 7.4 buffer with 3 mM MgCl2. At each of the time points (for example, 0, 15, 30, and 60 minutes), 150 μL of quench solution (100% acetonitrile with 0.1% formic acid) with internal standard was transferred to each well. Besides the zero minute controls, mixtures containing the same components except the NADPH were also prepared as the negative control. Verapamil was included as a positive control to verify assay performance. Plates were sealed, vortexed, and centrifuged at 4° C. for 15 minutes at 4000 rpm. The supernatant was transferred to fresh plates for LC/MS/MS analysis. Comparison data for microsome stability of urea compounds described herein versus the corresponding amide compounds are shown in Table 1.

Q: With CNc1cc(Nc2cccc3c2OCCO3)nc2c(NC(=O)NC3CC(O)C3)cnn12 (stereo not drawn) [drawing 281] as the compound, how does the half-life read?
A: > 2 h

Q: Which half-life does the source give for CNc1cc(Nc2cc(F)cc3c2OCCO3)nc2c(NC(=O)N[C@@H]3C[C@@H]3F)cnn12 [drawing 279] here?
A: > 2 h

Q: With CNC(=O)c1cnn2c(NC)cc(Nc3cc(F)cc4c3OCCO4)nc12 [reference compound] as the compound, how does the half-life read?
A: < 0.833 h

Q: Which half-life does the source give for CNc1cc(Nc2cc(F)cc3c2OCCO3)nc2c(C(=O)N[C@@H]3C[C@@H]3F)cnn12 [drawing 280, reference compound] here?
A: 1 h

Q: Which half-life does the source give for CNC(=O)Nc1cnn2c(NC)cc(Nc3cc(F)cc4c3OCCO4)nc12 [drawing 283] here?
A: > 2 h

Q: For CNc1cc(Nc2cccc3c2OCCO3)nc2c(C(=O)NC3CC3)cnn12 [drawing 278, reference compound], which half-life is on record?
A: 0.317 h

Q: With CNc1cc(Nc2cccc3c2OCCO3)nc2c(NC(=O)NC3CC3)cnn12 [drawing 277] as the compound, how does the half-life read?
A: > 2 h

Q: With CNc1cc(Nc2cccc3c2OCCO3)nc2c(C(=O)NC3CC(O)C3)cnn12 (stereo not drawn) [reference compound] as the compound, how does the half-life read?
A: 0.3 h

Test system: not listed separately
Assay: Rat pharmacokinetics (PK)
Type: in vivo
Conditions: rat plasma; IV group and PO group, route of the Cmax not given; urea versus corresponding amide
Experimental: Rat PK experiments were performed with an IV group and PO group included, with 3 rats per group. The formulation was solution for IV group and either solution or suspension formulation for the oral group(s). Plasma samples were harvested with K2EDTA as anticoagulant at 0.08, 0.25, 0.5, 1, 2, 4, 8, 12 and 24 hours for the IV group and at 0.25, 0.5, 1, 2, 4, 6, 8, 12 and 24 hours for the PO group, and analyzed by fit for purpose LC-MS/MS method. Non-compartmental analysis module in Phoenix WinNonlin® (Version 8.0) was used to assess the pharmacokinetic parameters. Maximum concentration (Cmax) were taken from the observed values.

Q: With CNc1cc(Nc2cccc3c2OCCO3)nc2c(NC(=O)NC3CCC3)cnn12 [drawing 287] as the compound, how does the Cmax read?
A: 5,000 ng/mL

Q: For CNc1cc(Nc2cccc3c2OCCO3)nc2c(NC(=O)NC3CCC3)cnn12 [drawing 289], which Cmax is on record?
A: 1,800 ng/mL

Same assay, conditions: rat, plasma, IV group and PO group, route of the Cmax not given, urea versus corresponding amide, read-out: Cmax

Q: Which Cmax does the source give for CNC(=O)Nc1cnn2c(NC)cc(Nc3cc(C)cc(C)c3)nc12 [drawing 291] here?
A: 915 ng/mL

Q: Which Cmax does the source give for CNc1cc(Nc2cccc3c2OCCO3)nc2c(C(=O)NC3CC3)cnn12 [drawing 290, reference compound] here?
A: 400 ng/mL

Q: For CNc1cc(Nc2cccc3c2OCCO3)nc2c(C(=O)N[C@@H]3C[C@@H]3F)cnn12 [reference compound], which Cmax is on record?
A: 400 ng/mL

Q: With CNC(=O)c1cnn2c(NC)cc(Nc3cc(C)cc(C)c3)nc12 [reference compound] as the compound, how does the Cmax read?
A: 200 ng/mL

Q: For CNc1cc(Nc2cccc3c2OCCO3)nc2c(NC(=O)N[C@@H]3C[C@@H]3F)cnn12 [drawing 285], which Cmax is on record?
A: 1690 ng/mL

Q: Which Cmax does the source give for CNc1cc(Nc2cccc3c2OCCO3)nc2c(C(=O)NC3CCC3)cnn12 [reference compound] here?
A: 1900 ng/mL
